Laboratory results published in ChEMBL document CHEMBL5260839 (J Med Chem, 2019).
Calls of active or inactive are those of the source. The calls are words filed in the database; no cut-off is given here.

Tests used:
RS4-11 [1] = test: Induction of apoptosis in human RS4-11 cells incubated for 24 hrs by Annexin-V/PI staining based flow cytometric analysis; assay type: functional, cell-based
OCI-AML-5 [2] = test: cells; details: Homo sapiens, OCI-AML-5, 96 h
SIG-M5 [3] = test: cells; details: Homo sapiens, SIG-M5, 96 h
MOLM-14 [4] = test: cells; details: Homo sapiens, MOLM-14, 96 h
[5] = Toxicity in mouse xenografted with human RS4-11 cells assessed as signs of toxicity at 25 mg/kg, iv administered for one week; assay type: organism-based; details: in vivo, 168 h, time 1 weeks
MOLM-14 [6] = test: Potency index, ratio of MI-1061 IC50 to test compound IC50 for inhibition of cell growth in human MOLM-14 cells harbouring wild type p53 incubated for 4 days by lactate dehydrogenase based WST-8 assay; assay type: functional; details: time 4 day
RS4-11 [7] = test: Antitumor activity against human RS4-11 cells xenografted in mouse assessed as reduction in tumor growth at 10 mg/kg, iv administered three times a week; assay type: functional, organism-based; details: time 1.0 weeks
SIG-M5 [8] = test: Potency index, ratio of MI-1061 IC50 to test compound IC50 for inhibition of cell growth in human SIG-M5 cells harbouring wild type p53 incubated for 4 days by lactate dehydrogenase based WST-8 assay; assay type: functional; details: time 4 day
RS4-11 [9] = test: Antitumor activity against human […] cells xenografted in mouse assessed as tumor regression at 25 mg/kg, administered daily 5 days a week for 2 weeks; assay type: functional, organism-based
[10] = target: T1, Protein cereblon/E3 ubiquitin-protein ligase Mdm2 (Homo sapiens) (UniProt Q00987+Q96SW2); test: PROTAC activity at CRBN/MDM2 in human MV4-11 cells assessed as upregulation of p21 mRNA expression at 0.1 to 0.3 uM incubated for 6 hrs by qRT-PCR analysis; assay type: cell-based; details: dose 0.1-0.3 µM
T1 sequence (Q00987 whole entry, looked up): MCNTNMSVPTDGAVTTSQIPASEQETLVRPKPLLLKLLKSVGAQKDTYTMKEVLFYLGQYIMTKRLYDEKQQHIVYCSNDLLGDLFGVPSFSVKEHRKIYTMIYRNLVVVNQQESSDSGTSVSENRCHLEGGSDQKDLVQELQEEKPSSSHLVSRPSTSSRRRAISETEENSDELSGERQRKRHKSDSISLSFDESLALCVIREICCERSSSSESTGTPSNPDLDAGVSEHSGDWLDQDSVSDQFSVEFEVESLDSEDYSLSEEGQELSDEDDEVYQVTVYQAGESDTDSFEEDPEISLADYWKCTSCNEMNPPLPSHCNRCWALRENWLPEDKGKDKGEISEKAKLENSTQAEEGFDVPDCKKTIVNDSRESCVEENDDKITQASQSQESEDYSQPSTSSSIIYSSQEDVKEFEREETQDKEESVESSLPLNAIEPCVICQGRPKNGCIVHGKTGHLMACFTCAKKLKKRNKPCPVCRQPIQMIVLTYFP
T1 sequence (Q96SW2 whole entry, looked up): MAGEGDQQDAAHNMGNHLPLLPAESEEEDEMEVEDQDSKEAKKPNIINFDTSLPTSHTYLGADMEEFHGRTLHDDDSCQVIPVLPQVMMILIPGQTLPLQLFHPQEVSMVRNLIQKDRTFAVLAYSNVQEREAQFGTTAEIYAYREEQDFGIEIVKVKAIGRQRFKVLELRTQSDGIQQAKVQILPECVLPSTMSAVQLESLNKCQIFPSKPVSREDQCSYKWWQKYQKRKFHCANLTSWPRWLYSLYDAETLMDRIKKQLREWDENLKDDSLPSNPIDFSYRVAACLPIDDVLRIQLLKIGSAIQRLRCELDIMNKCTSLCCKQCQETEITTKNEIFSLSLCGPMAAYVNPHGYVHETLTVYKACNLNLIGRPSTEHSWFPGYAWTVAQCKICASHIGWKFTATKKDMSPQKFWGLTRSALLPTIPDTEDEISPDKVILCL

RS4-11 [11] = test: Induction of apoptosis in human RS4-11 cells at 0.001 to 1 uM incubated for 24 hrs by Annexin-V/PI staining based flow cytometric analysis relative to MI-1061; assay type: functional; details: dose 0.001-1 µM
RS4-11 [12] = test: Inhibition of cell growth in human RS4-11 cells incubated for 4 days in the presence of lenalidomide by Lactate dehydrogenase based WST-8 assay; assay type: functional; details: time 4.0 day
[13] = Toxicity in mouse xenografted with human RS4-11 cells assessed as weight loss at 50 mg/kg, administered once a week for 3 weeks; assay type: organism-based; details: in vivo, 504 h
RS4-11 [14] = test: Antitumor activity against human RS4-11 cells xenografted in mouse assessed as tumor regression at 50 mg/kg, administered every other day for 3 weeks; assay type: functional, organism-based
MV4-11 [15] = test: Potency index, ratio of MI-1061 IC50 to test compound IC50 for inhibition of cell growth in human MV4-11 cells incubated for 4 days by lactate dehydrogenase based WST-8 assay; assay type: functional; details: time 4 day
[16] = Toxicity in mouse xenografted with human RS4-11 cells assessed as weight loss at 25 mg/kg, iv administered for one week; assay type: organism-based; details: in vivo, 168 h, time 1 weeks
RS4-11 [17] = test: Antitumor activity against human RS4-11 cells xenografted in mouse assessed as reduction in tumor growth at 25 mg/kg, iv administered three times a week relative to control; assay type: functional; design: scale not given: the % may be the effect or the level left; details: time 1 weeks
KG-1 = test: cells; details: Homo sapiens, KG-1, 96 h
MV4-11 [18] = test: Inhibition of cell growth in human MV4-11 cells incubated for 4 days in the presence of lenalidomide by Lactate dehydrogenase based WST-8 assay; assay type: functional; details: time 4.0 day
[19] = Toxicity in mouse xenografted with human RS4-11 cells assessed as signs o toxicity at 50 mg/kg, administered every other day for 3 weeks; assay type: organism-based; details: in vivo, 504 h
MOLM-13 [20] = test: Potency index, ratio of MI-1061 IC50 to test compound IC50 for inhibition of cell growth in human MOLM-13 cells harbouring wild type p53 incubated for 4 days by lactate dehydrogenase based WST-8 assay; assay type: functional; details: time 4 day
RS4-11 [21] = test: Potency index, ratio of MI-1061 IC50 to test compound IC50 for inhibition of cell growth in human RS4-11 cells incubated for 4 days by lactate dehydrogenase based WST-8 assay; assay type: functional; details: time 4 day
ML-2 [22] = test: Potency index, ratio of MI-1061 IC50 to test compound IC50 for inhibition of cell growth in human ML-2 cells harbouring wild type p53 incubated for 4 days by lactate dehydrogenase based WST-8 assay; assay type: functional; details: time 4 day
RS4-11 [23] = test: Antitumor activity against human RS4-11 cells xenografted in mouse assessed as reduction in tumor growth at 25 mg/kg, iv administered for a week; assay type: functional, organism-based; details: time 1.0 weeks
ML-2 [24] = test: cells; details: Homo sapiens, ML-2, 96 h
RS4-11 [25] = test: Antitumor activity against human RS4-11 cells xenografted in mouse assessed as inhibition of tumor growth at 50 mg/kg, administered once a week for 3 weeks; assay type: functional, organism-based
[26] = target: T1, Protein cereblon/E3 ubiquitin-protein ligase Mdm2 (Homo sapiens); test: PROTAC activity at CRBN/MDM2 in human RS4-11 cells harbouring wildtype p53 assessed as upregulation of TP53 mRNA expression at 0.03 to 0.1 uM incubated for 6 hrs by qRT-PCR analysis; assay type: cell-based; details: dose 0.03-0.1 µM
[27] = Toxicity in mouse xenografted with human RS4-11 cells assessed as signs of toxicity at 50 mg/kg, administered once a week for 3 weeks; assay type: organism-based; details: in vivo, 504 h
[28] = target: T1, Protein cereblon/E3 ubiquitin-protein ligase Mdm2 (Homo sapiens); test: PROTAC activity at CRBN/MDM2 in human MV4-11 cells assessed as upregulation of TP53 mRNA expression at 0.1 to 0.3 uM incubated for 6 hrs by qRT-PCR analysis; assay type: cell-based; details: dose 0.1-0.3 µM
RS4-11 [29] = test: cells; details: Homo sapiens, RS4-11, 96 h
[30] = target: T1, Protein cereblon/E3 ubiquitin-protein ligase Mdm2 (Homo sapiens); test: PROTAC activity at CRBN/MDM2 in human MV4-11 cells assessed as upregulation of MDM2 mRNA expression at 0.1 to 0.3 uM incubated for 6 hrs by qRT-PCR analysis; assay type: cell-based; details: dose 0.1-0.3 µM
MOLM-13 [31] = test: cells; details: Homo sapiens, MOLM-13, 96 h
[32] = Toxicity in mouse xenografted with human RS4-11 cells assessed as weight loss at 10 to 25 mg/kg, iv administered three times a week; assay type: organism-based; details: in vivo, 168 h, dose 10-25 mg/kg, time 1 weeks
[33] = target: T1, Protein cereblon/E3 ubiquitin-protein ligase Mdm2 (Homo sapiens); test: PROTAC activity at CRBN/MDM2 in human MV4-11 cells assessed as upregulation of PUMA mRNA expression at 0.1 to 0.3 uM incubated for 6 hrs by qRT-PCR analysis; assay type: cell-based; details: dose 0.1-0.3 µM
[34] = target: T1, Protein cereblon/E3 ubiquitin-protein ligase Mdm2 (Homo sapiens); test: PROTAC activity at CRBN/MDM2 in human MV4-11 cells assessed as upregulation of p53 mRNA expression at 0.1 to 0.3 uM incubated for 6 hrs by qRT-PCR analysis; assay type: cell-based; details: dose 0.1-0.3 µM
[35] = Toxicity in mouse xenografted with human RS4-11 cells assessed as signs of toxicity at 10 to 25 mg/kg, iv administered three times a week; assay type: organism-based; details: in vivo, 168 h, dose 10-25 mg/kg, time 1 weeks
[36] = Toxicity in mouse xenografted with human RS4-11 cells assessed as weight loss at 50 mg/kg, administered every other day for 3 weeks; assay type: organism-based; details: in vivo, 504 h
OCI-AML-5 [37] = test: Potency index, ratio of MI-1061 IC50 to test compound IC50 for inhibition of cell growth in human OCI-AML5 cells harbouring wild type p53 incubated for 4 days by lactate dehydrogenase based WST-8 assay; assay type: functional; details: time 4 day
MONO-MAC-6 = test: cells; details: Homo sapiens, MONO-MAC-6, 96 h

With `O=C1CCC(N2Cc3c(C#CCCCNC(=O)c4ccc(NC(=O)[C@@H]5NC6(CCCCC6)[C@@]6(C(=O)Nc7cc(Cl)ccc76)[C@H]5c5cccc(Cl)c5F)cc4)cccc3C2=O)C(=O)N1` (some centres undefined) as the compound, how does the Activity (RS4-11 [1]) read?
Its Activity is “Dose-Dependent Effect”.

What about the IC50 (OCI-AML-5 [2]) of the same compound?
The IC50 was 33.1 nM.

And the IC50 (SIG-M5 [3])?
Its IC50 is 19.8 nM.

And the IC50 (MOLM-14 [4])?
The IC50 was 10.5 nM.

What about the Activity [5] of the same compound?
Its Activity is “Non-Toxic”.

What about the “Ratio IC50” value (MOLM-14 [6]) of the same compound?
The value was greater than 10.

What about the Activity (RS4-11 [7]) of the same compound?
Its Activity is “Active”.

And the Ratio IC50 (SIG-M5 [8])?
Its Ratio IC50 is 5.3.

And the Activity (RS4-11 [9])?
Its Activity is “Active”.

What about the Activity [10] of the same compound?
The Activity was “Active”.

And the “fold change (FC)” value (RS4-11 [11])?
The value was greater than 10.

And the inhibition (RS4-11 [12])?
The inhibition was “inactive”.

And the Activity [13]?
The Activity was “Non-Toxic”.

What about the Activity (RS4-11 [14]) of the same compound?
The Activity was “Active”.

And the “Ratio IC50” value (MV4-11 [15])?
Its value is greater than 10.

And the Activity [16]?
The Activity was “Non-Toxic”.

And the Activity (RS4-11 [17])?
The Activity was 50%.

What about the IC50 (KG-1) of the same compound?
Its IC50 is greater than 10000 nM.

And the inhibition (MV4-11 [18])?
The inhibition was “Active”.

What about the Activity [19] of the same compound?
Its Activity is “Non-Toxic”.

And the “Ratio IC50” value (MOLM-13 [20])?
Its value is greater than 10.

And the “Ratio IC50” value (RS4-11 [21])?
Its value is greater than 10.

What about the “Ratio IC50” value (ML-2 [22]) of the same compound?
The value was greater than 10.

And the Activity (RS4-11 [23])?
Its Activity is “Active”.

What about the IC50 (ML-2 [24]) of the same compound?
The IC50 was 4.4 nM.

What about the Activity (RS4-11 [25]) of the same compound?
The Activity was “Active”.

And the Activity [26]?
Its Activity is “inactive”.

What about the Activity [27] of the same compound?
The Activity was “Non-Toxic”.

And the Activity [28]?
The Activity was “inactive”.

And the IC50 (RS4-11 [29])?
Its IC50 is 1.5 nM.

And the Activity [30]?
The Activity was “Active”.

And the IC50 (MOLM-13 [31])?
Its IC50 is 7.3 nM.

What about the Activity [32] of the same compound?
Its Activity is “Non-Toxic”.

And the Activity [33]?
The Activity was “Active”.

And the Activity [34]?
The Activity was “Active”.

And the Activity [35]?
The Activity was “Non-Toxic”.

And the Activity [36]?
Its Activity is “Non-Toxic”.

And the “Ratio IC50” value (OCI-AML-5 [37])?
Its value is greater than 10.

What about the IC50 (MONO-MAC-6) of the same compound?
The IC50 was greater than 10000 nM.
